# Reference: patent US11883423B2, “Nucleobase analogue derivatives and their applications” (BOARD OF REGENTS, THE UNIVERSITY OF TEXAS SYSTEM, priority 2014, dated 2024)
# Tests used:
# [1] = Aqueous solubility by the indirect method (IPM/water partitioning, Beall et al.); format: physicochemical
# Experimental: The aqueous solubility of Gem-DHA was determined following an indirect method according to Beall et al. with minimal modifications (Beall HD et al. International Journal of Pharmaceutics. 1993, 93, 37-47). Briefly, an excess amount of Gem-DHA was added to 100 μl of IPM in a crimp-sealed amber glass vials under nitrogen and was stirred vigorously at room temperature for 24 h, protected from light. After the stirring was stopped, the mixture was left to stand for an additional 24 h for equilibration. The content of the vial was centrifuged (14,000 rpm, 10 min) and the supernatant was transferred into a different tube. Aliquots of the saturated IPM solution were used to measure the Gem-DHA concentration before partitioning (A1) using HPLC (after proper dilution with methanol). Then, water was added to the IPM saturated solution in a volume ratio of 10:1. The two phases were mixed by vortexing for 5 min, left to stand for 15 min, then centrifuged (14,000 rpm, 15 min) to collect the IPM layer. Gem-DHA concentration in the IPM layer (A2) was again measured using HPLC after partitioning. The following equation was used to calculate the partition coefficient (KIPM/water) (Beall HD et al. International Journal of Pharmaceutics. 1993, 93, 37-47):
# [formula] where Vwater is the volume of the water phase and VIPM is the volume of IPM. The value of (Vwater/VIPM) was 10.
# The aqueous solubility (Sw) of Gem-DHA was determined using the following equation (Id.):
# [formula] where SIPM is the solubility of Gem-DHA in IPM.
# In order to validate the method of Beall et al. (Id.), the aqueous solubility of 4-(N)-stearoyl gemcitabine, another lipophilic gemcitabine conjugate (Sloat BR et al. Int J Pharm. 2011, 409(1-2), 278-288), which is stable in water, was measured directly (i.e., direct method) or using the indirect method reported by Beall et al. (Beall HD et al. International Journal of Pharmaceutics. 1993, 93, 37-47).
# [2] = system: BxPC-3 cells; assay: Anti-proliferative activity, MTT assay, BxPC-3 cells; format: cell-based, human; conditions: Bx-PC3 cells
# Experimental: The anti-proliferative activity of Gem-DHA was evaluated in Panc-02, TC-1, Panc-1-Luc, and BxPC-3 cell lines. For Panc-02 and TC-1 cells, cells (1,500/well for Panc-02 and 3,000/well for TC-1) were seeded in 96-well plates and incubated at 37° C. and 5% CO2 overnight. The cells were then treated with various concentrations of Gem-DHA or other compounds for 24 h. For BxPC-3 and Panc-1-Luc cells, 3,000 and 1,000 cells/well were used, respectively, and cells were co-incubated with the Gem-DHA for 72 h. Cell viability was determined using an MTT assay as previously described (Naguib YW et al. Mol Pharm. 2014, 11(4), 1239-1249). Gemcitabine HCl was dissolved in cell culture medium, whereas Gem-DHA and DHA were dissolved in dimethylsulfoxide (DMSO). The values of IC50 were calculated using GraphPad Prism (GraphPad software, Inc., La Jolla, CA).
# [3] = system: TC-1 tumors; assay: Antitumor activity against s.c. TC-1 tumors in C57BL/6 mice; format: in vivo; conditions: i.p., 50 mg/kg, every 3-4 days, 4 times
# Experimental: Therefore, the in vivo antitumor activity of Gem-DHA against TC-1 tumor cells was also evaluated. In the mouse model with TC-1 tumors, 5×10^5 cells were s.c. injected in the right flank of female C57BL/6 mice (Charles River, 6-8 weeks). Eight days later, mice were randomized into 3 groups (n=5-6) and i.p. injected with Gem-DHA (50 mg/kg, −0.087 mmole/kg), gemcitabine HCl (26.1 mg/kg, ˜0.087 mmole/kg), or left untreated as a control. Treatments were repeated every 3-4 days for a total of 4 times. Tumor growth was monitored and tumor volume was calculated as mentioned above. […] Shown in FIG. 14B are the body weights of TC-1 tumor-bearing mice after they were treated with multiple doses of Gem-DHA.
# [4] = system: Kras-Ink4a mice that spontaneously develop pancreatic tumors; assay: Survival of Kras-Ink4a mice, genetically modified model of pancreatic cancer; format: in vivo, mouse; conditions: i.p., 50 mg/kg
# Experimental: Finally, the antitumor activity of Gem-DHA was also evaluated in a genetically modified mouse model of pancreatic cancer. Female Kras-Ink4a mice that spontaneously develop pancreatic tumors were obtained from Dr. Stephen Hursting's lab at the University of Texas at Austin (Lashinger L et al. Cancer Prevention Research. 2013, 6(10), 1046-1055). […] On the 20th week, one group of mice (n=5) started to receive Gem-DHA (50 mg/kg, in Tween 80/ethanol/water solution with 5% (w/v) of mannitol) by i.p. injection. The injection was repeated twice a week, once a week for the last 5 doses, for a total of 29 times. As a control, another group of mice (n=6) were left untreated. […] Shown in FIG. 15 are the survival curves of mice treated with Gem-DHA or left untreated. […] The median survival time of mice that were treated with Gem-DHA was 280 days, in comparison to 172 days for mice that were left untreated (p=0.01, Log-rank (Mantel-Cox) test).
smiles,measurement,setting,value
"CC/C=C\C/C=C\C/C=C\C/C=C\C/C=C\C/C=C\CCC(=O)Nc1ccn(C2OC(CO)C(O)C2(F)F)c(=O)n1 (stereo not drawn) [Gem-DHA, 4-(N)-Docosahexaenoyl Difluorodeoxycytidine]",KIPM/water (partition coefficient),[1],194.72 ± 111.3
same,"Stability in IPM, remaining","[1]; buffer, 48 h",> 92%
same,Fold by which IC50 is smaller than that of gemcitabine HCl,[2],1.8×10^5 fold
same,Control of growth of s.c. TC-1 tumors,[3],more effective than a molar equivalent dose of gemcitabine HCl
same,Median survival time,"[4]; 29 injections from week 20, untreated 172 days, p=0.01",280 days
same,Survival of the mice,[4]; versus untreated,significantly prolonged the survival
